The results in this text go back to ChEMBL document CHEMBL2346572, “Discovery of AZD3514, a small-molecule androgen receptor downregulator for treatment of advanced prostate cancer” (Bioorg Med Chem Lett, 2013).

SMILES strings stand for the structures. In brackets after ≈: the same amount, converted by molar mass. Activity calls are given as the source filed them. No cut-off for these calls is given here. Where only a bound is given, the exact number is not on record here.

A short description of data set [1]: Volume of distribution at steady state in beagle dog at 2 umol/kg, iv and 10 umol/kg, po. In kind it is ADME, organism-based, Canis lupus familiaris. As to conditions: in vivo, read-out: Vdss.
Data set [2] in a line: Oral bioavailability in Han Wistar rat at 10 umol/kg. As to conditions: in vivo. In kind it is ADME, organism-based.
Data set [3] is described as follows: Fraction unbound in Han Wistar rat plasma by equilibrium dialysis method. In kind it is ADME, cell-free.
A short description of data set [4]: Lipophilicity, log D of the compound at pH 7.4. As to conditions: buffer.
Data set [5] can be described thus: Oral bioavailability in beagle dog at 10 umol/kg. In kind it is ADME, organism-based, Canis lupus familiaris. The note with it: in vivo.
The nature of data set [6]: Volume of distribution at steady state in Han Wistar rat at 3 umol/kg, iv and 10 umol/kg, po. In kind it is ADME, organism-based. The note with it: in vivo, read-out: Vdss.
Data set [7] is described as follows: Clearance in Han Wistar rat at 3 umol/kg, iv and 10 umol/kg, po. In kind it is ADME, organism-based. The note with it: in vivo.
The target of data set [8] is T1, Androgen receptor (Homo sapiens, UniProt P10275).
T1 sequence (P10275 whole entry): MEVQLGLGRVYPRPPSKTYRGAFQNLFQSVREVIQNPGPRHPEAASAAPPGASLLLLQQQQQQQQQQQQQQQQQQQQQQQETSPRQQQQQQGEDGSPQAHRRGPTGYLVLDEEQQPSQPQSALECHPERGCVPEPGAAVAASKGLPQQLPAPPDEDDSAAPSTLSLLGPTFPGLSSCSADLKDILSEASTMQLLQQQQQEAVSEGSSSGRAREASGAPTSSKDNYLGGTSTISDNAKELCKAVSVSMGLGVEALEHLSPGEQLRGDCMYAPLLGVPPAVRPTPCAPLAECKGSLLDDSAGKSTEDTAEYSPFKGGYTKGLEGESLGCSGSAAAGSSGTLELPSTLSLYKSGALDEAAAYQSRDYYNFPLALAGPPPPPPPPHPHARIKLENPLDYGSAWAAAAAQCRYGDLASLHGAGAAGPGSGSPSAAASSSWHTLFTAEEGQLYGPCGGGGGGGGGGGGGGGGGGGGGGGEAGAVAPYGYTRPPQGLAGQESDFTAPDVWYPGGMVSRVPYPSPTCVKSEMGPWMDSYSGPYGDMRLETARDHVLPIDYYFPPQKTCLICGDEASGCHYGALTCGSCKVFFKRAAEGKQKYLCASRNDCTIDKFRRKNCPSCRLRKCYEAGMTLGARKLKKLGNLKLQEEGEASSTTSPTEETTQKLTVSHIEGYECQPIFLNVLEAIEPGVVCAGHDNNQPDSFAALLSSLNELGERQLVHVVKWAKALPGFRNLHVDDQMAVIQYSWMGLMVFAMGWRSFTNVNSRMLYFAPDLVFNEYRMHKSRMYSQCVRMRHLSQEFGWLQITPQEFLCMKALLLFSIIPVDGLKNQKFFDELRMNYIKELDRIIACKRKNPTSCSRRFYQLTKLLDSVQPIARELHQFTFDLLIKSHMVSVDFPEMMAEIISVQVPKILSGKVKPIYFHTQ
Nature of the data set: Inhibition of androgen receptor-mediated cellular downregulation in human LNCAP cells assessed as decrease in nuclear receptor level after 20 to 22 hrs by laser-scanning fluorescence microplate cytometeric analysis. In kind it is cell-based.

The nature of data set [9]: Intrinsic clearance in human hepatocytes measured per 10^6 cells.
Data set [10] deals with Rattus norvegicus. Nature of the data set: Antiandrogenic activity in immature castrated Hershberger rat model assessed as inhibition of testosterone propionate-induced seminal vesicle growth at 50 to 100 mg/kg, po bid for 7 days. In kind it is functional, organism-based.
The nature of data set [11]: Clearance in beagle dog at 2 umol/kg, iv and 10 umol/kg, po. In kind it is ADME, organism-based, Canis lupus familiaris. As to conditions: in vivo.
Data set [12] in a line: Fraction unbound in human plasma by equilibrium dialysis method. In kind it is ADME, cell-free.
The target of data set [13] is Voltage-gated inwardly rectifying potassium channel KCNH2 (Homo sapiens, UniProt Q12809). Nature of the data set: Inhibition of human ERG by IonWorks assay.
A short description of another data set: physchem. As to conditions: phosphate buffer.
Data set [14] is described as follows: Oral bioavailability in Han Wistar rat at 50 umol/kg. In kind it is ADME, organism-based. As to conditions: in vivo.
The nature of data set [15]: Clearance in Han Wistar rat at 20 umol/kg, iv and 50 umol/kg, po. As to conditions: in vivo. In kind it is ADME, organism-based.
Data set [16] can be described thus: Volume of distribution at steady state in Han Wistar rat at 20 umol/kg, iv and 50 umol/kg, po. In kind it is ADME, organism-based. The note with it: in vivo, read-out: Vdss.
The target in data set [17] is T2, Androgen receptor (Rattus norvegicus, UniProt P15207).
T2 sequence (P15207 whole entry): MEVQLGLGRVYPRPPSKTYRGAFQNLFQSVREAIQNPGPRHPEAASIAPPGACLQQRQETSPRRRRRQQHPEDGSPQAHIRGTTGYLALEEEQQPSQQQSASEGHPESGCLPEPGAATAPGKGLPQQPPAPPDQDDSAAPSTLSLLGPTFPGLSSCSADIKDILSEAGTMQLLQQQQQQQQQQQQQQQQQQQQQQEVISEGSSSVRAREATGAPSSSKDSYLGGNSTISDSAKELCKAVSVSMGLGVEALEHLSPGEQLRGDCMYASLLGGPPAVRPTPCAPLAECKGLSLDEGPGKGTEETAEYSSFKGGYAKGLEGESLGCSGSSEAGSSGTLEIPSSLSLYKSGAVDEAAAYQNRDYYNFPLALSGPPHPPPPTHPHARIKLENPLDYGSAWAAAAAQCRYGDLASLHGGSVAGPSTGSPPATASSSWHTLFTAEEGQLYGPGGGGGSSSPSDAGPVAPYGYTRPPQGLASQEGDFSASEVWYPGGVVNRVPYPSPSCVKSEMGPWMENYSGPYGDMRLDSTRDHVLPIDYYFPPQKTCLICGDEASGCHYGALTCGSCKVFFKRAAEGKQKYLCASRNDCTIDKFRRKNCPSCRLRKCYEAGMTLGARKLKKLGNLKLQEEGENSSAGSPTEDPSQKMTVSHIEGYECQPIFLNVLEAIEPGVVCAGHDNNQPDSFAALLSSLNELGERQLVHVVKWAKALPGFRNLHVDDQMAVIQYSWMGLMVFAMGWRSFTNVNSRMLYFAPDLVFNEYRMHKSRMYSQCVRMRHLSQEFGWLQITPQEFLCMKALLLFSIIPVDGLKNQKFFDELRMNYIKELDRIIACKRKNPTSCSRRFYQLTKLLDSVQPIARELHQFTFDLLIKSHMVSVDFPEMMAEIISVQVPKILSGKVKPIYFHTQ
Nature of the data set: Binding affinity to rat androgen receptor ligand binding domain by fluorescence polarization assay.

Data set [18] can be described thus: Clearance in Han Wistar rat at 4 umol/kg, iv and 5 umol/kg, po. In kind it is ADME, organism-based. As to conditions: in vivo.
For data set [19], the target named is T1, Androgen receptor. Kind of data set: Displacement of [3H]R1881 from full length androgen receptor in human LNCAP cells. In kind it is cell-based.
Data set [20] in a line: Oral bioavailability in Han Wistar rat at 5 umol/kg. In kind it is ADME, organism-based. As to conditions: in vivo.
Data set [21] can be described thus: Volume of distribution at steady state in Han Wistar rat at 4 umol/kg, iv and 5 umol/kg, po. In kind it is ADME, organism-based. As to conditions: in vivo, read-out: Vdss.
Data set [22] concerns Rattus norvegicus. Nature of the data set: Antiandrogenic activity in immature castrated Hershberger rat model assessed as inhibition of testosterone propionate-induced seminal vesicle growth at 2 mg/kg, po bid for 7 days. In kind it is functional, organism-based. Details: dose 2 mg/kg.

Sequence of Voltage-gated inwardly rectifying potassium channel KCNH2 (Q12809 whole entry): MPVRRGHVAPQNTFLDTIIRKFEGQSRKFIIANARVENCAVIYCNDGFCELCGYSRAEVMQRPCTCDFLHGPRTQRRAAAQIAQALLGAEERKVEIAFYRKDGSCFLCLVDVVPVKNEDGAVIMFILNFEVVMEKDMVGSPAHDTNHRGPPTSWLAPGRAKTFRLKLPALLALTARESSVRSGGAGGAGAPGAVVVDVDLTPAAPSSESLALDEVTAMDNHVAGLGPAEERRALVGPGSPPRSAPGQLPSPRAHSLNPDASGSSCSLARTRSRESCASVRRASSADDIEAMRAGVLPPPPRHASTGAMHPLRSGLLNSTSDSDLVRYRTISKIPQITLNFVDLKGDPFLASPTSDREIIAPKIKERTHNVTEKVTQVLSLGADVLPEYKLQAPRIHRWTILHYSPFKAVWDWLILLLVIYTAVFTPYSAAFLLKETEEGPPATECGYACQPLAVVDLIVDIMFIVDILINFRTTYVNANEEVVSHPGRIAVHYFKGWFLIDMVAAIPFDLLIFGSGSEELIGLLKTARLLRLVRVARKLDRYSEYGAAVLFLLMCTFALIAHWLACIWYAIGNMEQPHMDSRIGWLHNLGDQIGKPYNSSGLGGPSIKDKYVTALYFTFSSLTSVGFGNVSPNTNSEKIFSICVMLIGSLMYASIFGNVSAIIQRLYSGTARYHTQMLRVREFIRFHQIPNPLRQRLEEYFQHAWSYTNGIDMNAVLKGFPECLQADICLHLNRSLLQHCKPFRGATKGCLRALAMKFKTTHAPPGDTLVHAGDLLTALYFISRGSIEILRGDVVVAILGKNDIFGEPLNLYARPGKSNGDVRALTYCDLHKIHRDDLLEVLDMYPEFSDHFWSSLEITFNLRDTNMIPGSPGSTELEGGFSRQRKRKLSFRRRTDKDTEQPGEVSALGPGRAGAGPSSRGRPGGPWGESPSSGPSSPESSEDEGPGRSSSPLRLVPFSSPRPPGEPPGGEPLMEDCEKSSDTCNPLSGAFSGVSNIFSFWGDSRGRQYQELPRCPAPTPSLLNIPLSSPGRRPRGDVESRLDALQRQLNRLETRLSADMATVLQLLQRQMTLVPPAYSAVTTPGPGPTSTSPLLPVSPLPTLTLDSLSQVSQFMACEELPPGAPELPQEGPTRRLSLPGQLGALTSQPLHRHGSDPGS

`Cn1nccc1CCOc1ccc(C2CCN(c3ccc4nnc(C(F)(F)F)n4n3)CC2)cc1`: the Vd worked out at 2.7 L/kg in [1] and 2.3 L/kg in data set [6]. Moreover, the bioavailability in data set [2] came to 43%; in [5], 18%. Besides, the unbound share (fraction unbound) in [3] was found to be 0.0021; in data set [12] it was 0.0016. Further, the logD in [4] was over 4.3. Moreover, the results for the clearance in [7] and in data set [11] were 22 mL/min/kg and 9.2 mL/min/kg, respectively. Further, the IC50 on Androgen receptor [8] was 0.234 µM; in [13], 17.8 µM. The same compound returned a hepatocyte CLint in [9] of 12 µL/min/1e6 cells. Also, the “growth inhibition (GI)” value in the data set on Rattus norvegicus [10] is “Active”. The same compound yielded a thermodynamic solubility at 24 h in the data set “physchem” of under 0.73 µM.

`CC(=O)N1CCN(CCOc2ccc(C3CCN(c4ccc5nnc(C(F)(F)F)n5n4)CC3)cc2)CC1`: the unbound share (fraction unbound) in data set [3] was 0.012; in [12], 0.027. For the same compound, the half-inhibitory concentration (IC50) on Androgen receptor [8] was 0.324 µM; in data set [13], 11.2 µM. The same compound showed a hepatocyte CLint in data set [9] of 12 µL/min/1e6 cells.

`Fc1cccc(CN2CCN(c3ccc4nnc(C(F)(F)F)n4n3)CC2)c1F`: the free fraction (fraction unbound) worked out at 0.018 in data set [3] and 0.017 in data set [12]. For the same compound, the figures for the 50% inhibitory concentration (IC50) (on Androgen receptor [8]; in [13]) were 2.09 µM and over 100 µM, respectively. The compound further returned an intrinsic metabolic clearance (hepatocyte CLint) in data set [9] of 22 µL/min/1e6 cells.

With `OC1(c2cccnc2)CCN(c2ccc3nnc(C(F)(F)F)n3n2)CC1`, the Vd in data set [1] amounted to 1.3 L/kg; in data set [16], 5.7 L/kg. The fraction unbound in data set [3] is 0.34; in data set [12], 0.26. For the same compound, in [4], the log distribution coefficient (logD) came to 2.1. Moreover, the bioavailability in data set [5] and in [14] was over 75% each time. The clearance in data set [15] was 38 mL/min/kg; in data set [11] it was 18 mL/min/kg. The results for the half-maximal inhibitory concentration (IC50) (on Androgen receptor [8]; in data set [13]) were 10.7 µM and 95.5 µM, respectively. In data set [9], the hepatocyte CLint is under 3 µL/min/1e6 cells. Further, in the data set on Rattus norvegicus [10], the “growth inhibition (GI)” value is “Active”. For the same compound, in “physchem”, the thermodynamic solubility at 24 h stood at 100 µM (≈ 36.4 µg/mL).

As to `Fc1ccc(CN2CCN(C3=Nn4c(nnc4C(F)(F)F)CC3)CC2)cc1`, the results for the free fraction (fraction unbound) in data set [3] and in data set [12] were 0.13 and 0.12, respectively. Moreover, in data set [4], the log distribution coefficient (logD) turned out to be 2.8. In addition, the values for the IC50 (on Androgen receptor [8]; in [13]) were 5.89 µM and 29.5 µM, respectively. Also, the hepatocyte CLint in [9] came out at 3.7 µL/min/1e6 cells. The solubility (thermodynamic) at 24 h in the data set “physchem” came to 520 µM (≈ 199 µg/mL).

Regarding `CC(=O)N1CCN(CCOc2ccc(C3CCN(C4=Nn5c(nnc5C(F)(F)F)CC4)CC3)cc2)CC1` [AZD3514], the Vd in [1] is 3.2 L/kg; in data set [21], 2.1 L/kg. Moreover, the figures for the unbound share (fraction unbound) in data set [3] and in [12] were 0.094 and 0.12, respectively. The compound also yielded a log distribution coefficient (logD) in data set [4] of 2.5. Further, the results for the bioavailability in data set [5] and in data set [20] were over 75% and 74%, respectively. Moreover, the inhibition constant Ki on Androgen receptor [17] was determined as 5 µM; on Androgen receptor [19], 2.2 µM. The concentration for half-maximal inhibition (IC50) is 1.78 µM at Androgen receptor [8] and over 100 µM in data set [13]. Further, the intrinsic clearance (hepatocyte CLint) in [9] was under 3 µL/min/1e6 cells. Also, the “growth inhibition (GI)” value in the data set on Rattus norvegicus [10] is “Active”. Also, the clearance in data set [18] is 6.6 mL/min/kg; in data set [11], 12 mL/min/kg. This compound showed a thermodynamic solubility at 24 h in the data set “physchem” of 577 µM (≈ 300 µg/mL).

For `N#Cc1ccc(CN2CCN(c3ccc4nnc(C(F)(F)F)n4n3)CC2)cc1`, the fraction unbound in data set [3] was 0.092; in data set [12] it was 0.044. The same compound had a logD in [4] of 2.9. In addition, the concentration for half-maximal inhibition (IC50) on Androgen receptor [8] is 1.51 µM. Besides, in data set [9], the intrinsic metabolic clearance (hepatocyte CLint) is under 3 µL/min/1e6 cells. Moreover, in “physchem”, the thermodynamic solubility at 24 h was determined as 8.4 µM (≈ 3.25 µg/mL).

As for `CC(O)(CS(=O)(=O)c1ccc(F)cc1)C(=O)Nc1ccc(C#N)c(C(F)(F)F)c1` (centres undefined), the “growth inhibition (GI)” value in the data set with Rattus norvegicus [22] is “Active”.

`OC1(c2ccc(F)cc2)CCN(c2ccc3nnc(C(F)(F)F)n3n2)CC1`: the results for the fraction unbound in data set [3] and in [12] were 0.036 and 0.04, respectively. For the same compound, the hepatocyte CLint in data set [9] is under 3 µL/min/1e6 cells.

Regarding `CC(=O)N1CCN(CCOc2ccc(C3(O)CCN(c4ccc5nnc(C(F)(F)F)n5n4)CC3)cc2)CC1`, the fraction unbound was 0.064 in data set [3] and 0.17 in data set [12]. The pH-dependent lipophilicity (logD) in data set [4] amounted to 2.2. This compound also displayed an IC50 in [13] of over 100 µM. This compound also showed a solubility (thermodynamic) at 24 h in “physchem” of 190 µM (≈ 101 µg/mL).

With `Fc1ccc(CN2CCN(c3ccc4nnc(C(F)(F)F)n4n3)CC2)cc1`, the fraction unbound in data set [3] stood at 0.034; in [12] it was 0.02. Besides, in [9], the intrinsic metabolic clearance (hepatocyte CLint) came out at 52 µL/min/1e6 cells.
